# According to the METLIN SMRT retention time set (Domingo-Almenara et al. 2019):
# Assay: gradient 5% acetonitrile 3 min, to 50% in 2 min, to 85% in 15 min, held 3 min, 100 µL/min
# Conditions: column: Zorbax Extend-C18 2.1 x 50 mm; eluents: water / acetonitrile, 0.1% formic acid
# Summary of the method: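 Mixtures of ~100 pure standards were chromatographed on a Zorbax Extend-C18 column (2.1 × 50 mm, 1.8 μm) at 100 μL/min using water and acetonitrile, each with 0.1% formic acid. Detection used a quadrupole time-of-flight mass spectrometer in positive and negative ionization mode, and data collection spanned 3 months. Retention time was obtained from adduct peaks picked computationally and each checked manually.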
row,SMILES,RP-LC retention time [s]
1,CN(C)c1ccc(CNC(=O)c2cc3n(n2)CC(C)(C(=O)NCc2ccc(F)cc2)N(C)C3=O)cc1 (centres undefined),610
2,O=C(NC1CC1)c1cnn2c(-c3ccccn3)ccnc12,687
3,CCn1cnc2ccc(-c3noc(-c4ccc(OC)cc4C)n3)cc21,741
4,Cc1cccc(-c2ncccc2CNS(=O)(=O)c2cccc(F)c2)c1,724
5,CCOCCCNC(=O)Nc1c(-c2cccc(C)c2)nc2ccccn12,863
6,CC(=O)N1CCc2cc(N3CC(C(=O)Nc4ccc(N5CCOCC5)cc4)CC3=O)ccc21 (centres undefined),629
7,CCN1C(=O)COc2ccc(-c3noc(-c4ccc(F)cc4)n3)cc21,1130
8,O=c1ccc(-c2ccco2)nn1CCCNS(=O)(=O)/C=C/c1ccccc1,759
9,FC(F)(F)c1nc2cc3c(cc2n1Cc1ccc(Br)cc1)OCCO3,1080
10,O=C(COc1ccc(Cl)cc1)NCC1CCOCC1,764
11,Cc1ccc(S(=O)(=O)N2CCC3(CCN(c4cccnc4)C3)C2)c(C)c1 (centres undefined),684
12,COCC(=O)Oc1c(Sc2ccc(C)cc2)c(C)nn1-c1ccccc1,854
13,CC(C)CC(=O)N1CCCCCCNC(=O)[C@@H]2CCCC[C@@H]21,833
14,O=C(c1ccccc1)N1CCC(CCNS(=O)(=O)Cc2ccccc2)CC1,803
15,CCn1cccc1-c1nc(C)c(C(=O)NCCc2ccc(OC)c(OC)c2)s1,998
16,O=C(Cc1cccs1)NCCOc1ccc(F)cc1,766
17,O=c1n(CC2CO2)c(=O)n(CC2CO2)c(=O)n1CC1CO1 (centres undefined),675
18,CCc1ccc(OCc2nc(CC(=O)Nc3nc(-c4ccc(C)cc4)cs3)cs2)cc1,1270
19,CCOC(=O)c1ccccc1NC(=O)NCCn1c(C(F)(F)F)nc2cccnc21,917
20,COc1ccc(NC(=O)NC(C(=O)N2CCc3ccccc32)C(C)C)cc1OC (centres undefined),830
21,COCCNC(=O)Nc1nc(-c2ccccc2)c(C(C)=O)s1,685

row,SMILES,RP-LC retention time [s]
1,C=CCN1C(=O)COc2ccc(-c3csc(NC(=O)c4cccc(Br)c4)n3)cc21,1120
2,NC(=O)CCSc1nnc(SCC(=O)c2ccccc2)s1,675
3,O=S(=O)(Nc1ccc(Cn2cncn2)cc1)c1ccc(F)cc1F,714
4,CCC(=O)N(C1CCOCC1)C1CCN(S(=O)(=O)c2ccc(F)cc2)CC1,792
5,Cc1c(C(=O)NCc2cccnc2)oc2c1C(=O)CC(C)(C)C2,560
6,COc1ccc(-c2noc(Cc3nnc(-c4ccc(C)c(C)c4)o3)n2)cc1OC,997
7,Cn1cc(C(=O)N2CC(n3cc(COc4ccc(F)cc4)nn3)C2)cn1,641
8,O=C(COc1ccc2ccccc2c1)NCC1CCN(C2CCCC2)CC1,590
9,CCCNC(=O)Nc1cccc(-c2noc(-c3ccc4c(c3)OCO4)n2)c1,941
10,COc1ccc(C)cc1NC(=O)CN1CCN(Cc2ccccc2)C(=O)C1=O,684
11,CC1CCN(S(=O)(=O)c2ccc3c(c2)CCCC(=O)N3CC(=O)N2CCc3ccccc3C2)CC1,1010
12,Cc1ccccc1NC(=O)Nc1ccc2nncn2c1,668
13,COc1ccc(OC)c(NC(=O)Cc2csc3nc(-c4cccc(Br)c4)cn23)c1,1010
14,O=C1CN(S(=O)(=O)c2cccc(C(F)(F)F)c2)CC2(CCCCC2)N1C1CCCC1,1250
15,O=C(CCc1c(-c2ccccc2)nc2ccccn12)Nc1cccc(F)c1,692
16,CCC(=O)c1cn(CC(=O)NC(C)c2ccc3c(c2)OCCCO3)c2ccccc12 (centres undefined),848
17,Cc1ccn2cc(C(=O)NCc3ccc(OC(C)C)cc3)nc2c1,713
18,CCOc1cccc(CNc2nc3ccncc3n(CC)c2=O)c1,665
19,CC(=O)c1ccc(NC(=O)CN2C(=O)NC3(CCC(C)CC3)C2=O)cc1 (centres undefined),762
20,COCCN1CCC(N2CCN(C(=O)C3(c4ccccc4)CC3)CC2)C1=O (centres undefined),542
21,CCN1CCC2(CC1)N=C(c1ccc3c(c1)OCO3)CC(c1cc(Br)ccc1O)N2 (centres undefined),634

row,SMILES,RP-LC retention time [s]
1,COc1cccc(CNC(=O)CN2CCN(Cc3ccc(F)cc3)C2=O)c1OC,772
2,CCCNC(=O)C1CCCN(c2ccc(SCC(=O)Nc3ccc(C(=O)OCC)cc3)nn2)C1 (centres undefined),701
3,CCn1ccc2c(cc(C(=O)Nc3ccc(Br)c(C)c3)n2C)c1=O,895
4,O=C(NCc1ccccc1)c1cc2c(=O)n(Cc3ccccc3)ccc2s1,896
5,COCc1noc([C@@H]2CN(C(=O)c3noc(C)c3COC)C[C@H]2C(N)=O)n1,625
6,CC(C)Cn1cc(CCNC(=O)Nc2ccc(C(F)(F)F)cc2)c2cccnc21,970
7,Cc1ccc(Cn2cc(-c3noc(-c4cccc(N(C)C)c4)n3)nn2)cc1,1100
8,Cc1nn2c(CNS(=O)(=O)c3ccc(C)c(C)c3)c(-c3ccccc3)nc2s1,916
9,CC1(C(=O)NCc2ccc3c(c2)OCO3)CCCCC(=O)N1 (centres undefined),642
10,Cc1ccccc1CN1CCN(CC(=O)NC2CCN(Cc3ccccc3)CC2)C(=O)C1=O,633
11,Cc1cccc(-c2noc(Cn3c(=O)n(-c4cccc(C)c4)c(=O)c4sccc43)n2)c1,1090
12,CCCCNC(=O)CCCn1c(=O)c2cccn2c2ccccc21,780
13,CCOC(=O)C1=C(CN2CCC(C)CC2)NC(=O)NC1c1ccc(C)cc1 (centres undefined),656
14,O=c1c2ccccc2c(-c2nc(-c3cccnc3)no2)cn1-c1ccccc1,1010
15,Cc1ccc(NC(=O)NCCc2cn(CC(C)C)c3ncccc23)cc1Cl,941
16,Cc1ccccc1NC(=O)N(C)CC1CCOCC1,726
17,CCCNS(=O)(=O)c1cc2n(c1)CCCN(C(C)C)C2=O,678
18,O=C(NCc1cccs1)C1CCN(Cc2cc3ccccc3n2Cc2ccccc2Cl)CC1,821
19,O=C(Cn1nc(N2CCOCC2)c2ccccc2c1=O)N1CCN(c2ccccc2)CC1,800

# Other lines, results leading:
row,RP-LC retention time [s],SMILES
1,1190,CC1CCN(S(=O)(=O)c2ccc(-c3nnc(C(=O)NCCC4=CCCCC4)o3)cc2)CC1
2,658,Cc1cc(C)c2c(N3CCSCC3)nc(C(=O)NCC(C)C)nc2n1
3,892,Cc1sc(-c2nnc(C(C)C)o2)cc1NC(=O)C1CCC1
4,1020,Cc1ccc(-n2nc(N3CCCC(C(=O)Nc4ccc(F)cc4F)C3)ccc2=O)cc1Cl (centres undefined)
5,908,O=C(Nc1ccc(C(F)(F)F)cc1)C1CCCN(S(=O)(=O)c2c[nH]c(C(=O)N3CCCC3)c2)C1 (centres undefined)
6,714,O=C(Cn1c(=O)cc(C(=O)N2CCCC2)c2ccccc21)Nc1ccccc1Cl
7,763,CC(=O)Nc1onc(C)c1-c1ccc(C)c(S(=O)(=O)N2CCN(c3ncccn3)CC2)c1
8,1150,CCCN1C(=O)COc2cc(-c3noc(C(=O)NC4CCCCCC4)n3)ccc21
9,917,Cc1ccc(F)c(-n2nnc(C(=O)O)c2-c2ccccn2)c1
10,859,Cc1nn(Cc2ccc(C(=O)NCC3CC3)cc2)c(C)c1S(=O)(=O)N1CCCCC1
11,911,O=C(c1csc(Nc2ccccc2)n1)N1CCN(c2ccccc2F)CC1
12,915,Cc1cc(C)n(Cc2nc(-c3ccc(NC(=O)Cc4ccccc4F)cc3)oc2C)n1
13,604,CCOC(=O)N1CCN(Cc2nc(-c3ccc(N4CCCC4)nc3)no2)CC1
14,564,O=C(c1ccc2c(c1)OCO2)N1CCC(Nc2ncnc3c2CCC3)C1 (centres undefined)
15,792,CN(C)C(=O)c1ccc2c(c1)N(CC(=O)NCc1ccc(Cl)cc1)C(=O)C1CCCCN21 (centres undefined)
16,622,CCN(CC)c1ccc(NC(=O)C2CCCN(S(=O)(=O)c3cn(C(C)C)cn3)C2)c(C)c1 (centres undefined)
17,957,O=C(CSc1ncnc2c1[nH]c1ccc(Br)cc12)NC1CCCCC1
18,1230,Cc1sc2ncnc(N3CCCCC3)c2c1C(=O)Nc1cc(F)c(F)c(F)c1
19,1430,Cc1cc(C)c(S(=O)(=O)N2CCC(c3noc(-c4ccccc4C)n3)CC2)c(C)c1
20,826,O=C(CN1CCN(Cc2ccc(F)cc2)C1=O)NCc1cc(F)cc(F)c1
21,736,O=C(Nc1cccc(F)c1)C1CCN(S(=O)(=O)c2ccc3[nH]c(=O)ccc3c2)CC1
22,604,CCc1nncn1C1CCN(C(=O)c2cc(F)ccc2F)CC1
23,840,CCN1C(=O)c2cccnc2Sc2cc(NC(=O)c3ccccc3C(F)(F)F)ccc21
24,747,O=C(Cn1nc2c(cc1=O)CCCC2)Nc1ccc(Br)cc1
25,835,Cn1c(=O)sc2cc(S(=O)(=O)N3CCC(C(=O)Nc4ccccc4)CC3)ccc21
26,1090,CCc1ccc(Oc2cc(N3CCC(C(=O)NCC(C)c4ccccc4)CC3)ncn2)cc1 (centres undefined)
27,922,O=c1n(Cc2ccc(F)cc2Cl)nc2ccc(S(=O)(=O)N3CCCC3)cn12
28,682,Cc1cc(NC(=O)c2ccc3c(c2)OCO3)sn1
